Key:
[1] = Study 2: pharmacokinetic drug-drug interaction GLPG0259 / methotrexate; format: in vivo, human; details: methotrexate 7.5 mg
[2] = cited from earlier work

CN(Cc1cnc2nc(N)nc(N)c2n1)c1ccc(C(=O)N[C@@H](CCC(=O)O)C(=O)O)cc1 [methotrexate]
Cmax point estimate, with vs without GLPG0259 ([1]; day 14 (GLPG0259 50 mg) vs day -7): 89.63%
AUC∞ point estimate, with vs without GLPG0259 ([1]; day 14 vs day -7): 118.22%
t1/2,λz point estimate, with vs without GLPG0259 ([1]; day 14 vs day -7): 110.64%
t1/2,λz, range of boundary values reported in the literature [2]: 6 to 69 h

— paper PMC3585965 (Drugs in R&D, 2012)
